Laboratory results published in US8158636B2, “Compounds and methods for kinase modulation, and indications therefor” (Plexxikon Inc., priority 2008, dated 2012).

How the values were obtained:
Format in all cases: biochemical
[1] = molecular target: Kit (Homo sapiens, UniProt P10721); assay: Kinase activity assay, Kit; conditions: Table 1j; read-out: activity toward kinase Kit, IC50
Text: (§1) Assays for the activity of kinases, including, but not limited to, Fms, Kit, B-Raf, B-Raf V600E, c-Raf-1, and TrkA are known in the art, for example as described in US Patent Publication Number US20070032519 and U.S. patent application Ser. No. 11/473,347 (see also, PCT publication WO2007002433), the disclosures of which are hereby incorporated by reference with respect to such assays.

[2] = molecular target: Fms (Homo sapiens, UniProt P07333); assay: Kinase activity assay, Fms; conditions: Table 1h; read-out: activity toward kinase Fms, IC50
Sequence of Fms (P07333 20-972): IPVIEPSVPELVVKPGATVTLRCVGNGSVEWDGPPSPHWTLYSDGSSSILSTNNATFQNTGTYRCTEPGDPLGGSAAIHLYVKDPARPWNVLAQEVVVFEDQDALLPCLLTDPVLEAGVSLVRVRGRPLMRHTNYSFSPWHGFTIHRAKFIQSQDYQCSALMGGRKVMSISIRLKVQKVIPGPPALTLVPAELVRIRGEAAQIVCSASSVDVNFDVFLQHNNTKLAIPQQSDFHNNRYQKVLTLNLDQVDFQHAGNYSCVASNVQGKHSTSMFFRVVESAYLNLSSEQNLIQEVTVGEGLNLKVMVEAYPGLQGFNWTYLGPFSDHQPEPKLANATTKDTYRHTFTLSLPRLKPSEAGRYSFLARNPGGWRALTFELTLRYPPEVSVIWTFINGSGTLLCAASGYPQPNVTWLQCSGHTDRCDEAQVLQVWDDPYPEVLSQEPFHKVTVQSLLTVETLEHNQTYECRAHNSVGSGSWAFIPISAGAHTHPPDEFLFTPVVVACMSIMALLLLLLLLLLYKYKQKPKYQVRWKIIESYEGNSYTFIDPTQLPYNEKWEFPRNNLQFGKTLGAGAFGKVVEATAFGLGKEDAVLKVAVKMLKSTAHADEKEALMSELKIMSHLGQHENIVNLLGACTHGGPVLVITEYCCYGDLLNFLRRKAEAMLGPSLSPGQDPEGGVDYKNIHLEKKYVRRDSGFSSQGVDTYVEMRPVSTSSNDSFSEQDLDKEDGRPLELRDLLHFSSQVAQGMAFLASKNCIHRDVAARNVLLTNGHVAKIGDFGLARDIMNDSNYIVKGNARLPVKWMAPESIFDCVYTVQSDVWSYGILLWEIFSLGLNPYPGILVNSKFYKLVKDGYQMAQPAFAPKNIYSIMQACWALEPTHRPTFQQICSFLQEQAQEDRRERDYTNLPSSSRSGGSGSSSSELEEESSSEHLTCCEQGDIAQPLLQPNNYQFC
Text: as §1

[3] = molecular target: T1, Flt-3 (Homo sapiens, UniProt P36888); assay: Kinase activity assay, Flt-3; conditions: Table 1g; read-out: activity toward kinase Flt-3, IC50
T1 sequence (P36888 27-993): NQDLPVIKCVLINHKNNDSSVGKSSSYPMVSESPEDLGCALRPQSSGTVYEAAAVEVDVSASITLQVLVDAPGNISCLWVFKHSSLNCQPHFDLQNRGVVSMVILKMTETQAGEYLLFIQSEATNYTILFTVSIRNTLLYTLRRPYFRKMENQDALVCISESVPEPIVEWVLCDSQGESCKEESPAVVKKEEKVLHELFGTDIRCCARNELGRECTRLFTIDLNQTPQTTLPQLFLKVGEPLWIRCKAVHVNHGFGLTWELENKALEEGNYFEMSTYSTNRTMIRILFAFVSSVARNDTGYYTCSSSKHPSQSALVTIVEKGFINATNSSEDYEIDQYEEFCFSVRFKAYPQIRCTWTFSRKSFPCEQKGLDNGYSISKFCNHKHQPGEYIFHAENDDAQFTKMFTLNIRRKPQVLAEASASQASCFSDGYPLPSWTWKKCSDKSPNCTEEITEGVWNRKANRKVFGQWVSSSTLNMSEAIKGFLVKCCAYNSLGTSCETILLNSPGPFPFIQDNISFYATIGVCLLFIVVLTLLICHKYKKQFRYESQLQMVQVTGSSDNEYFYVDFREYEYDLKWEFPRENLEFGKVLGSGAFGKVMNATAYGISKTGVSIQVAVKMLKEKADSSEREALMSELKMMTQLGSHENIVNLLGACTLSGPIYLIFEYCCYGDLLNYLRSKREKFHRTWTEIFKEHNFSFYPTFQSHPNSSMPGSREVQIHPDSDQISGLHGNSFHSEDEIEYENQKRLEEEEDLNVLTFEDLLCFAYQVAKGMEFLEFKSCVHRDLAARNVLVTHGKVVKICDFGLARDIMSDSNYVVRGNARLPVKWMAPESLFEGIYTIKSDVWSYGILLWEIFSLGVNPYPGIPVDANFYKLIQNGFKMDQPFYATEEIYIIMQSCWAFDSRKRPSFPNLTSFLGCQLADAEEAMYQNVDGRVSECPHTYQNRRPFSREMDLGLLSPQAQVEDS
Text: as §1

[4] = molecular target: B-Raf V600E (Homo sapiens, UniProt P15056, V600E); assay: Kinase activity assay, B-Raf V600E; conditions: Table 1c; read-out: activity toward kinase B-Raf V600E, IC50
Sequence of B-Raf V600E (P15056 whole entry V600E): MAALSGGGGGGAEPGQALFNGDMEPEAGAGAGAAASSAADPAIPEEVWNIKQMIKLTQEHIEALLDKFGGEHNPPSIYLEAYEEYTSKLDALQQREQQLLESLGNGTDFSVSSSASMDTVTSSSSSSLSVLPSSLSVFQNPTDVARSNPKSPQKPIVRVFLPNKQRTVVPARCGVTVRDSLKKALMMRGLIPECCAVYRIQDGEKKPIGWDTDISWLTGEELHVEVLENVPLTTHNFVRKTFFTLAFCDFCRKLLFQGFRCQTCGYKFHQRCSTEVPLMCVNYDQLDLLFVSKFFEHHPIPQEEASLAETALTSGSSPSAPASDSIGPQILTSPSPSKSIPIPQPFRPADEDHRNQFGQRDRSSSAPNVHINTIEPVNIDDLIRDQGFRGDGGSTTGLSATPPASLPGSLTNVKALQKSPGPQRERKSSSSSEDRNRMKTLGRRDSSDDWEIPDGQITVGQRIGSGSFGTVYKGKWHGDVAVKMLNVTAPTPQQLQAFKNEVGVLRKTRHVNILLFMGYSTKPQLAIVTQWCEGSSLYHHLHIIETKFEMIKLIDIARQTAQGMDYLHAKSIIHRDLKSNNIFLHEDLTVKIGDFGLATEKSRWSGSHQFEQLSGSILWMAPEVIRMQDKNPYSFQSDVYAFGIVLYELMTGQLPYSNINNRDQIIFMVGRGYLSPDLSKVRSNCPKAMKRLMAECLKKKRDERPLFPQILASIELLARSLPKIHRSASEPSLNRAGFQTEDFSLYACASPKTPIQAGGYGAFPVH
Text: as §1

[5] = molecular target: Kdr (Homo sapiens, UniProt P35968); assay: Kinase activity assay, Kdr; conditions: Table 1i; read-out: activity toward kinase Kdr, IC50
Sequence of Kdr (P35968 20-1356): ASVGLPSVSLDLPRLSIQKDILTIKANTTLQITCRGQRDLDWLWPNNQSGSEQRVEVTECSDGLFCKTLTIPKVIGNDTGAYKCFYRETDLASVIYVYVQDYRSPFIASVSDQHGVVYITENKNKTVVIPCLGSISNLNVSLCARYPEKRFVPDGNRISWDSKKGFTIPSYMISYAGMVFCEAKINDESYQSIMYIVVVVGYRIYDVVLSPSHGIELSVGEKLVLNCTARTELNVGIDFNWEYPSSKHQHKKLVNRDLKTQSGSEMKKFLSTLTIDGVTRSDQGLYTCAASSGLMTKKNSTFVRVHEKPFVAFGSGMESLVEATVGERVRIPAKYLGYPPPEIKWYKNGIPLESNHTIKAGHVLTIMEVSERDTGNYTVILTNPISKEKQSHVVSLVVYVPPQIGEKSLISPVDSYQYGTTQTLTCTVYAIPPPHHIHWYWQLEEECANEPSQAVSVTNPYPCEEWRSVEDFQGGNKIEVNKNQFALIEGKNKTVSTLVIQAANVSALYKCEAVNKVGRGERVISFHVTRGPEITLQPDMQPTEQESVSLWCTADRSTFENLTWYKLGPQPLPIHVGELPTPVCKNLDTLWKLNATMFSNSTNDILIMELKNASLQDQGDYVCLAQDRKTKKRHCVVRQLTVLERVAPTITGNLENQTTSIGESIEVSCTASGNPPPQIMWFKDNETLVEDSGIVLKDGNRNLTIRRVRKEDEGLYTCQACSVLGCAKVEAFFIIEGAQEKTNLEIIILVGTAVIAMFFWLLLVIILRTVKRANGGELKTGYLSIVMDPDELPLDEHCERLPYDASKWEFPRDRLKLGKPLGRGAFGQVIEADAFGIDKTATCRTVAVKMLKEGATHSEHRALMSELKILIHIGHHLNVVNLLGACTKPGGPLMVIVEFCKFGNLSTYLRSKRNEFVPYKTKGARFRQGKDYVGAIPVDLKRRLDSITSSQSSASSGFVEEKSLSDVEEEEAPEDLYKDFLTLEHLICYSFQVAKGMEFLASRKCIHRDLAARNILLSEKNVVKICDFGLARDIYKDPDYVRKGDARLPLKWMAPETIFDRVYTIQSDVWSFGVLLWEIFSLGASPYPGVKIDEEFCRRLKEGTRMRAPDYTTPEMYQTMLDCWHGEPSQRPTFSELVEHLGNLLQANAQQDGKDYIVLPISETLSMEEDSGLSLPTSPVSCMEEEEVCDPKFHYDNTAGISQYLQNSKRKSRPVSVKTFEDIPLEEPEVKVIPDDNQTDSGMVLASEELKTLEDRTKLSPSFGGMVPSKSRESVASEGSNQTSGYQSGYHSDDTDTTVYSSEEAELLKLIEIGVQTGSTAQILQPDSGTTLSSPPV
Text: as §1

[6] = molecular target: C-Raf (Homo sapiens, UniProt P04049); assay: Kinase activity assay, C-Raf; conditions: Table 1d; read-out: activity toward kinase C-Raf, IC50
Sequence of C-Raf (P04049 whole entry): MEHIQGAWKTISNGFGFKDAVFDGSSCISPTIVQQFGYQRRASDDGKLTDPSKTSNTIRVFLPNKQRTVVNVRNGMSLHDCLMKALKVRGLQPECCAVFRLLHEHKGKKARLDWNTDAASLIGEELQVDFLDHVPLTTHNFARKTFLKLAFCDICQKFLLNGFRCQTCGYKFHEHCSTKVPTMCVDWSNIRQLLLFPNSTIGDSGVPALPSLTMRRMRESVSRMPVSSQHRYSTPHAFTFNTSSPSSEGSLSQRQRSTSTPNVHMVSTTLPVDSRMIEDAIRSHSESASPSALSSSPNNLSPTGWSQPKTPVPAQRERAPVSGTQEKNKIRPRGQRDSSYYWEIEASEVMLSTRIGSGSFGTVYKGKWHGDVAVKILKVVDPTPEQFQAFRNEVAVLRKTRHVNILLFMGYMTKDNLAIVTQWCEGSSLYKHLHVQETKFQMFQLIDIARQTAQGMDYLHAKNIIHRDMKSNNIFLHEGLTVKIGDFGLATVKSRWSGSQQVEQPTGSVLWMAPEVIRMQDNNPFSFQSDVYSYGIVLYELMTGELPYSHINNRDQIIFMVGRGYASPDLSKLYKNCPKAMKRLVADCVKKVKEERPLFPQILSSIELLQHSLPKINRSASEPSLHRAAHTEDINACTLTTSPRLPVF
Text: as §1

[7] = molecular target: TrkA (Homo sapiens, UniProt P04629); assay: Kinase activity assay, TrkA; conditions: Table 1m; read-out: activity toward kinase TrkA, IC50
Text: as §1

Sequence of Kit (P10721 26-976): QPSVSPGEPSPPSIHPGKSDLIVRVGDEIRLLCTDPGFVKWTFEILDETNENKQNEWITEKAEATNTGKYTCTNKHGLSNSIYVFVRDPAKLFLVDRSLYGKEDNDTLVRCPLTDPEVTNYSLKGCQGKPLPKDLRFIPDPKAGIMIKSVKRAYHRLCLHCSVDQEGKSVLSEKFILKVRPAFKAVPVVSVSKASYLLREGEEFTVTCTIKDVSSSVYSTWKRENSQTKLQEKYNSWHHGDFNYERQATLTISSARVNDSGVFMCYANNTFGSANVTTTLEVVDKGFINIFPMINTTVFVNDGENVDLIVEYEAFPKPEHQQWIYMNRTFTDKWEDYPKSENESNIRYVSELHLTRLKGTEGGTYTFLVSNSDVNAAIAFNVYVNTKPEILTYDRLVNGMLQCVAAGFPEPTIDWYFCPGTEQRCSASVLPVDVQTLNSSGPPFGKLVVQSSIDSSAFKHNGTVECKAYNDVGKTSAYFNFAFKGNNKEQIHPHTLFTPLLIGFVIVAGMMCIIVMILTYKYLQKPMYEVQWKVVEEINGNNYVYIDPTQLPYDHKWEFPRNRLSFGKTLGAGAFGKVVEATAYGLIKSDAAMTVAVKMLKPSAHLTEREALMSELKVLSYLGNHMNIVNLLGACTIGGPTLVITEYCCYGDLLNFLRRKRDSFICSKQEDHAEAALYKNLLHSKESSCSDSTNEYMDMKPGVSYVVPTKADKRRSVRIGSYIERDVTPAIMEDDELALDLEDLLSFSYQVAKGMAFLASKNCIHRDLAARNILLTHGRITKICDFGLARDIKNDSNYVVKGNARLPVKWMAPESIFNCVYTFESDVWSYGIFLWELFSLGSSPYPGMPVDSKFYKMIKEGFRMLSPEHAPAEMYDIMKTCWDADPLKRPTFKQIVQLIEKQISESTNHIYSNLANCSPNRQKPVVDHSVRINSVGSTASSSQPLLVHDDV

Row | Compound | IC50 [1] | IC50 [2] | IC50 [3] | IC50 [4] | IC50 [5] | IC50 [6] | IC50 [7]
1 | COc1ccc(CNc2ccc(Cc3c[nH]c4ncncc34)cn2)cn1 [P-0002, (6-Methoxy-pyridin-3-ylmethyl)-[5-(7H-pyrrolo[2,3-d]pyrimidin-5-ylmethyl)-pyridin-2-yl]-amine] | ≤ 10 µM | ≤ 10 µM | ≤ 10 µM | ≤ 10 µM | ≤ 10 µM |  | 
2 | FC(F)(F)c1ccc(CNc2ccc(Cc3c[nH]c4ncncc34)cn2)cn1 [P-0004, [5-(7H-Pyrrolo[2,3-d]pyrimidin-5-ylmethyl)-pyridin-2-yl]-(6-trifluoromethyl-pyridin-3-ylmethyl)-amine] | ≤ 10 µM | ≤ 10 µM |  | ≤ 10 µM | ≤ 10 µM | ≤ 10 µM | 
3 | COc1ccc(CNc2ccc(C(=O)c3c[nH]c4ncncc34)cn2)cn1 [P-0008, {6-[(6-Methoxy-pyridin-3-ylmethyl)-amino]-pyridin-3-yl}-(7H-pyrrolo[2,3-d]pyrimidin-5-yl)-methanone] | ≤ 10 µM |  | ≤ 10 µM | ≤ 10 µM | ≤ 10 µM |  | 
4 | COc1ncc(CNc2ccc(Cc3c[nH]c4ncncc34)c(F)n2)cc1F [P-0010, (5-Fluoro-6-methoxy-pyridin-3-ylmethyl)-[6-fluoro-5-(7H-pyrrolo[2,3-d]pyrimidin-5-ylmethyl)-pyridin-2-yl]-amine] |  | ≤ 10 µM | ≤ 10 µM |  | ≤ 10 µM |  | ≤ 10 µM
5 | COc1ncc(CNc2ncc(Cc3c[nH]c4ncncc34)cn2)cc1F [P-0024, (5-Fluoro-6-methoxy-pyridin-3-ylmethyl)-[5-(7H-pyrrolo[2,3-d]pyrimidin-5-ylmethyl)-pyrimidin-2-yl]-amine] | ≤ 10 µM | ≤ 10 µM |  |  | ≤ 10 µM |  | ≤ 10 µM
6 | Fc1nc(NCc2ccc(N3CCOCC3)nc2)ccc1Cc1c[nH]c2ncncc12 [P-0039, [6-Fluoro-5-(7H-pyrrolo[2,3-d]pyrimidin-5-ylmethyl)-pyridin-2-yl]-(6-morpholin-4-yl-pyridin-3-ylmethyl)-amine] |  | ≤ 10 µM |  | ≤ 10 µM | ≤ 10 µM | ≤ 10 µM | 
7 | Fc1ccc(CNc2ccc(Cc3c[nH]c4ncncc34)c(F)n2)nc1 [P-0041, (5-Fluoro-pyridin-2-ylmethyl)-[6-fluoro-5-(7H-pyrrolo[2,3-d]pyrimidin-5-ylmethyl)-pyridin-2-yl]-amine] | ≤ 10 µM | ≤ 10 µM |  | ≤ 10 µM | ≤ 10 µM | ≤ 10 µM | 
8 | Fc1nc(NCc2cncc(Cl)c2)ccc1Cc1c[nH]c2ncncc12 [P-0044, (5-Chloro-pyridin-3-ylmethyl)-[6-fluoro-5-(7H-pyrrolo[2,3-d]pyrimidin-5-ylmethyl)-pyridin-2-yl]-amine] |  | ≤ 10 µM |  | ≤ 10 µM | ≤ 10 µM | ≤ 10 µM | 
9 | Fc1nc(NCc2cccnc2OCC(F)(F)F)ccc1Cc1c[nH]c2ncncc12 [P-0051, [6-Fluoro-5-(7H-pyrrolo[2,3-d]pyrimidin-5-ylmethyl)-pyridin-2-yl]-[2-(2,2,2-trifluoro-ethoxy)-pyridin-3-ylmethyl]-amine] | ≤ 10 µM | ≤ 10 µM |  | ≤ 10 µM | ≤ 10 µM | ≤ 10 µM | ≤ 10 µM
10 | Fc1nc(NCc2cc(C(F)(F)F)cc(C(F)(F)F)c2)ccc1Cc1c[nH]c2ncncc12 [P-0054, (3,5-Bis-trifluoromethyl-benzyl)-[6-fluoro-5-(7H-pyrrolo[2,3-d]pyrimidin-5-ylmethyl)-pyridin-2-yl]-amine] | ≤ 10 µM | ≤ 10 µM |  |  | ≤ 10 µM |  | ≤ 10 µM
11 | CC(C)Oc1ncccc1CNc1ccc(Cc2c[nH]c3ncncc23)c(F)n1 [P-0057, [6-Fluoro-5-(7H-pyrrolo[2,3-d]pyrimidin-5-ylmethyl)-pyridin-2-yl]-(2-isopropoxy-pyridin-3-ylmethyl)-amine] | ≤ 10 µM | ≤ 10 µM |  |  | ≤ 10 µM | ≤ 10 µM | ≤ 10 µM

Next, values leading:

Row | IC50 [1] | IC50 [2] | IC50 [3] | IC50 [4] | IC50 [5] | IC50 [6] | IC50 [7] | Compound
12 | ≤ 10 µM | ≤ 10 µM |  |  | ≤ 10 µM |  | ≤ 10 µM | CN(C)c1ccccc1CNc1ccc(Cc2c[nH]c3ncncc23)c(F)n1 [P-0061, (2-Dimethylamino-benzyl)-[6-fluoro-5-(7H-pyrrolo[2,3-d]pyrimidin-5-ylmethyl)-pyridin-2-yl]-amine]
13 | ≤ 10 µM | ≤ 10 µM |  | ≤ 10 µM | ≤ 10 µM |  | ≤ 10 µM | Cc1cc(C)cc(CNc2ccc(Cc3c[nH]c4ncncc34)c(F)n2)c1 [P-0063, (3,5-Dimethyl-benzyl)-[6-fluoro-5-(7H-pyrrolo[2,3-d]pyrimidin-5-ylmethyl)-pyridin-2-yl]-amine]
14 | ≤ 10 µM | ≤ 10 µM |  |  | ≤ 10 µM |  | ≤ 10 µM | Cc1cc(F)cc(CNc2ccc(Cc3c[nH]c4ncncc34)c(F)n2)c1 [P-0064, (3-Fluoro-5-methyl-benzyl)-[6-fluoro-5-(7H-pyrrolo[2,3-d]pyrimidin-5-ylmethyl)-pyridin-2-yl]-amine]
15 | ≤ 10 µM | ≤ 10 µM |  | ≤ 10 µM | ≤ 10 µM |  | ≤ 10 µM | Fc1cc(Cl)cc(CNc2ccc(Cc3c[nH]c4ncncc34)c(F)n2)c1 [P-0067, (3-Chloro-5-fluoro-benzyl)-[6-fluoro-5-(7H-pyrrolo[2,3-d]pyrimidin-5-ylmethyl)-pyridin-2-yl]-amine]
16 | ≤ 10 µM | ≤ 10 µM |  |  | ≤ 10 µM |  | ≤ 10 µM | CCOc1ncccc1CNc1ccc(Cc2c[nH]c3ncncc23)c(F)n1 [P-0069, (2-Ethoxy-pyridin-3-ylmethyl)-[6-fluoro-5-(7H-pyrrolo[2,3-d]pyrimidin-5-ylmethyl)-pyridin-2-yl]-amine]
17 | ≤ 10 µM | ≤ 10 µM |  |  | ≤ 10 µM |  | ≤ 10 µM | COc1cc(CNc2ccc(Cc3c[nH]c4ncncc34)c(F)n2)cc(C(F)(F)F)c1 [P-0082, [6-Fluoro-5-(7H-pyrrolo[2,3-d]pyrimidin-5-ylmethyl)-pyridin-2-yl]-(3-methoxy-5-trifluoromethyl-benzyl)-amine]
18 | ≤ 10 µM | ≤ 10 µM |  | ≤ 10 µM | ≤ 10 µM |  | ≤ 10 µM | COc1ncc(CNc2ccc(Cc3c[nH]c4ncnc(OC)c34)c(F)n2)cc1F [P-0091, (5-Fluoro-6-methoxy-pyridin-3-ylmethyl)-[6-fluoro-5-(4-methoxy-7H-pyrrolo[2,3-d]pyrimidin-5-ylmethyl)-pyridin-2-yl]-amine]
19 | ≤ 10 µM | ≤ 10 µM |  |  | ≤ 10 µM | ≤ 10 µM |  | COc1ncc(F)cc1CNc1ncc(Cc2c[nH]c3ncnc(OC)c23)cn1 [P-0093, (5-Fluoro-2-methoxy-pyridin-3-ylmethyl)-[5-(4-methoxy-7H-pyrrolo[2,3-d]pyrimidin-5-ylmethyl)-pyrimidin-2-yl]-amine]
20 | ≤ 10 µM | ≤ 10 µM |  |  | ≤ 10 µM |  | ≤ 10 µM | COc1ncc(F)cc1CNc1ccc(Cc2c[nH]c3ncnc(OC)c23)c(F)n1 [P-0094, (5-Fluoro-2-methoxy-pyridin-3-ylmethyl)-[6-fluoro-5-(4-methoxy-7H-pyrrolo[2,3-d]pyrimidin-5-ylmethyl)-pyridin-2-yl]-amine]
21 | ≤ 10 µM | ≤ 10 µM |  |  |  |  | ≤ 10 µM | COc1ncc(F)cc1CNc1ccc(Cc2c[nH]c3ncnc(O)c23)cn1 [P-0099, 5-{6-[(5-Fluoro-2-methoxy-pyridin-3-ylmethyl)-amino]-pyridin-3-ylmethyl}-7H-pyrrolo[2,3-d]pyrimidin-4-ol]
22 | ≤ 10 µM | ≤ 10 µM | ≤ 10 µM |  |  |  |  | FC(F)(F)c1ccc(CNc2ccc(Cc3c[nH]c4ncnc(C5CCCC5)c34)cn2)cn1 [P-0104, [5-(4-Cyclopentyl-7H-pyrrolo[2,3-d]pyrimidin-5-ylmethyl)-pyridin-2-yl]-(6-trifluoromethyl-pyridin-3-ylmethyl)-amine]
